Earlier results in patent US20100151037A1, “METHOD FOR THE PREPARATION OF NANOPARTICLES CONTAINING A POORLY WATER-SOLUBLE […] ACTIVE COMPOUND” (priority 2008, published 2010).

Details: dry powder form

COC1=C(OC)C(=O)C(C/C=C(\C)CC/C=C(\C)CC/C=C(\C)CC/C=C(\C)CC/C=C(\C)CC/C=C(\C)CC/C=C(\C)CC/C=C(\C)CC/C=C(\C)CCC=C(C)C)=C(C)C1=O [Coenzyme Q10]
bioavailability: as low as three percent
